Assay results published in the supplement of paper PMC10307832.

Legend:
Test in all cases: relative viability (nuclei count vs DMSO), 5 days (fraction); higher = more cells survive
AZ505 + Tozasertib = compound: C1CCC(CC1)N(CCNCCC2=C3C(=C(C=C2)O)NC(=O)CO3)C(=O)CCNCCC4=CC(=C(C=C4)Cl)Cl [AZ505] + Cc1cc(Nc2cc(N3CCN(C)CC3)nc(Sc3ccc(NC(=O)C4CC4)cc3)n2)n[nH]1 [Tozasertib] (partner 0.1 µM)
In short: (§1)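 The day after seeding in 1536-well plates, lung cancer cell lines were treated by pin tool with a single drug, or with a fixed anchor-drug dose together with five library-drug doses (not always all listed) in √10 steps. After 5 days, a combined fix-and-stain solution (final 0.05% Triton X-100, 1% formaldehyde, 1 ug/ml Hoechst) was added. Nuclei counted on 4× images gave relative viability as treated counts over vehicle counts, reported as the median of duplicate plates.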

Dactolisib + Navitoclax = compound: Cn1c(=O)n(-c2ccc(C(C)(C)C#N)cc2)c2c3cc(-c4cnc5ccccc5c4)ccc3ncc21 [Dactolisib] + CC1(C)CCC(c2ccc(Cl)cc2)=C(CN2CCN(c3ccc(C(=O)NS(=O)(=O)c4ccc(N[C@H](CCN5CCOCC5)CSc5ccccc5)c(S(=O)(=O)C(F)(F)F)c4)cc3)CC2)C1 [Navitoclax] (partner 0.5 µM)
In short: as §1

Dactolisib + Linsitinib = compound: Cn1c(=O)n(-c2ccc(C(C)(C)C#N)cc2)c2c3cc(-c4cnc5ccccc5c4)ccc3ncc21 [Dactolisib] + C[C@]1(O)C[C@@H](c2nc(-c3ccc4ccc(-c5ccccc5)nc4c3)c3c(N)nccn32)C1 [Linsitinib] (partner 1 µM)
In short: as §1

Dactolisib + Palbociclib = compound: Cn1c(=O)n(-c2ccc(C(C)(C)C#N)cc2)c2c3cc(-c4cnc5ccccc5c4)ccc3ncc21 [Dactolisib] + CC(=O)c1c(C)c2cnc(Nc3ccc(N4CCNCC4)cn3)nc2n(C2CCCC2)c1=O [Palbociclib] (partner 0.5 µM)
In short: as §1

| Cell Line | relative viability (AZ505 + Tozasertib; first compound 0.08 µM) | relative viability (AZ505 + Tozasertib; first compound 0.253 µM) | relative viability (AZ505 + Tozasertib; first compound 0.8 µM) | relative viability (AZ505 + Tozasertib; first compound 2.53 µM) | relative viability (AZ505 + Tozasertib; first compound 8 µM) | relative viability (Dactolisib + Navitoclax; first compound 0.002 µM) | relative viability (Dactolisib + Navitoclax; first compound 0.006325 µM) | relative viability (Dactolisib + Navitoclax; first compound 0.02 µM) | relative viability (Dactolisib + Navitoclax; first compound 0.06325 µM) | relative viability (Dactolisib + Navitoclax; first compound 0.2 µM) | relative viability (Dactolisib + Linsitinib; first compound 0.002 µM) | relative viability (Dactolisib + Linsitinib; first compound 0.006325 µM) | relative viability (Dactolisib + Linsitinib; first compound 0.02 µM) | relative viability (Dactolisib + Linsitinib; first compound 0.06325 µM) | relative viability (Dactolisib + Linsitinib; first compound 0.2 µM) | relative viability (Dactolisib + Palbociclib; first compound 0.002 µM) | relative viability (Dactolisib + Palbociclib; first compound 0.006325 µM) | relative viability (Dactolisib + Palbociclib; first compound 0.02 µM) | relative viability (Dactolisib + Palbociclib; first compound 0.06325 µM) | relative viability (Dactolisib + Palbociclib; first compound 0.2 µM) |
| --- | --- | --- | --- | --- | --- | --- | --- | --- | --- | --- | --- | --- | --- | --- | --- | --- | --- | --- | --- | --- |
| SW 1573 | 0.174 | 0.169 | 0.175 | 0.171 | 0.144 | 1.09 | 0.866 | 0.775 | 0.252 | 0.294 | 0.824 | 0.606 | 0.525 | 0.297 | 0.242 | 0.395 | 0.324 | 0.225 | 0.154 | 0.116 |
| NCI-H2009 | 0.714 | 0.738 | 0.805 | 0.706 | 0.64 | 1.27 | 1.12 | 1.1 | 0.692 | 0.501 | 1.21 | 1.18 | 1.26 | 0.639 | 0.497 | 0.235 | 0.202 | 0.235 | 0.153 | 0.118 |
| LOU-NH91 | 0.654 | 0.696 | 0.577 | 0.591 | 0.625 | 0.547 | 0.6 | 0.646 | 0.431 | 0.385 | 0.712 | 0.888 | 0.837 | 0.588 | 0.527 | 0.532 | 0.548 | 0.549 | 0.524 | 0.52 |
| NCI-H2405 | 0.508 | 0.594 | 0.45 | 0.516 | 0.503 | 0.727 | 0.935 | 0.831 | 0.391 | 0.25 | 0.936 | 0.76 | 0.755 | 0.323 | 0.275 | 0.471 | 0.542 | 0.449 | 0.314 | 0.291 |
